Literature values in PMC7687107 (Chemmedchem, 2020).

Target: tRNA guanine transglycosylase (TGT) (Zymomonas mobilis, UniProt P28720)
Assay: SPR
Format: binding

tRNA guanine transglycosylase (TGT), sequence (P28720 2-386): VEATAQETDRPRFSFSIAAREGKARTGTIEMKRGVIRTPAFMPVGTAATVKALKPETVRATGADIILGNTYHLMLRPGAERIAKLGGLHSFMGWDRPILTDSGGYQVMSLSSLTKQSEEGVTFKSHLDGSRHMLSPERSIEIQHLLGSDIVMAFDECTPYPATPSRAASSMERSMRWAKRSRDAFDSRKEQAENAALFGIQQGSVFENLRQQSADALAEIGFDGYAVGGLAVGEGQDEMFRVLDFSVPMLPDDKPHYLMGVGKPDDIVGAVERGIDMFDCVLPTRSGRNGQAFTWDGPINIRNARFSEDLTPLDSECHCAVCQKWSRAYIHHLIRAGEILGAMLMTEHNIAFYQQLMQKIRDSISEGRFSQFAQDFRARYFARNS

In the case of `CNc1nc2c(CCC3OC(OC)C(O)C3O)c3[nH]c(N)nc(=O)c3cc2[nH]1` (stereo not shown) [compound 1, 6‐amino‐4‐[2‐(3,4‐dihydroxy‐5‐methoxyoxolan‐2‐yl)ethyl]‐2‐(methylamino)‐1H,5H‐imidazo[4,5‐g]quinazolin‐8‐one], the Kd is given as 68 ± 5 nM.
